The text below walks through data of PubChem BioAssay (NCI).

Assay in all cases: growth of human tumour cells (NCI), 48 h
For test [1], the system named is KM12 colon.
Test [2] relates to MCF7 breast.
For test [3], the system named is NCI-H460 lung.
The test system of test [4] is SF-268 CNS.
Test [5] relates to SNB-75 CNS.
Test [6] deals with SNB-19 CNS.

Each structure is given as a SMILES string.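 Assay format: 96-well plates, 48-hour exposure. Here, GI50 denotes the concentration required for 50% inhibition of growth. TGI: total growth inhibition.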

In the case of `COC(=O)CC[C@H](Cc1ccccc1)NC(=O)c1csc([C@@H](C[C@H](C(C)C)N(C)C(=O)[C@@H](NC(=O)[C@H]2CCCCN2C)C(C)C)OC(C)=O)n1`, the GI50 is below 0.0025 µM in test [1]; below 0.0025 µM in test [2]; below 0.0025 µM in test [3]; 0.00785 µM in test [4]; below 0.0025 µM in test [5]. Also, the TGI in test [1], in test [2], in test [3], in test [4] and in test [5] was above 25 µM each time.
With `Cc1cnc(C(=O)Nc2nc3ccc(S(=O)(=O)Nc4ccc(C5(C(F)(F)F)CC5)cc4)cc3[nH]2)cn1`, the GI50 was 0.309 µM in test [1]; 0.287 µM in test [2]; 0.351 µM in test [3]; 0.733 µM in test [4]; 0.553 µM in test [6]; 0.183 µM in test [5]. Besides, the TGI was 13 µM in test [1]; 5.68 µM in test [2]; 3.95 µM in test [3]; 11.9 µM in test [4]; 13.3 µM in test [6]; 0.786 µM in test [5].
On to `CCCCCCCc1cc2c3c(nc4ccccc42)C(=O)c2cccnc2-c3n1`, for which the GI50 in test [1] is 1.45 µM; in test [2] it was 1.54 µM; in test [3] it was 1.05 µM; in test [4], 5.48 µM; in test [6], 2.17 µM; in test [5], 5.11 µM. The TGI in test [1] is 3.11 µM; in test [2], 5.92 µM; in test [3], 3.1 µM; in test [4], 11.8 µM; in test [6], 7.31 µM; in test [5], 10.1 µM.
Regarding `O=C(/C=C/c1ccc(C(F)(F)F)cc1)c1ccc(Nc2nc(NCCO)nc(Nc3ccc(Cl)cc3)n2)cc1`, the GI50 in test [1] is 2.13 µM; in test [2], 1.49 µM; in test [3], 4 µM; in test [4], 5.05 µM; in test [5], 2.05 µM. In addition, the TGI in test [1] came out at 4.84 µM; in test [2] it was 5.56 µM; in test [3], 13.6 µM; in test [4], 18.7 µM; in test [5] it was 8.71 µM.
Take `COC(=O)/C=C/c1cc2c(cc1-c1c(C(=O)O)cc(OC)c(OC)c1OC)OCO2`: the TGI in test [1], in test [2], in test [4], in test [6] and in test [5] was above 10 µM each time.
Regarding `OCC#Cc1ccccc1C#CCCCCCC#Cc1ccccc1C#CCO`, the GI50 in test [1] was 18.8 µM; in test [2] it was 18.5 µM; in test [3], 17.4 µM; in test [4], 18.8 µM; in test [6], 34.8 µM. Further, the TGI in test [1] was 49.4 µM; in test [2], 40.2 µM; in test [3] it was 34 µM; in test [4], 38.7 µM; in test [6], above 100 µM.
As to `O=c1c(O)c(-c2cc(O)c(O)c(O)c2)oc2cc(O)cc(O)c12`, the TGI in test [1] was 33.1 µM; in test [2], 37.4 µM; in test [3], 39.1 µM; in test [4], above 100 µM; in test [5], above 100 µM.
For `C#CCOc1cccc(Nc2ncnc3cc(NC(=O)CCl)ccc23)c1`, the GI50 is 4.34 µM in test [1]; 1.95 µM in test [2]; 3.64 µM in test [3]; 4.32 µM in test [4]; 4.98 µM in test [6]. In addition, the TGI in test [1] turned out to be 16.8 µM; in test [2], 7.99 µM; in test [3], 12.1 µM; in test [4], 19.7 µM; in test [6], 18.4 µM.
`Oc1ccc2oc3ncc(Br)c(-c4ccccc4)c3c2c1`: the GI50 in test [1], in test [2], in test [3] and in test [4] was above 100 µM in each case. Further, the TGI in test [1], in test [2], in test [3] and in test [4] was above 100 µM each time.
For the compound `C=C1C(=O)O[C@H]2[C@H]1CC/C(Cn1cc(-c3ccccc3C(F)(F)F)nn1)=C\CC[C@@]1(C)O[C@@H]21`, the GI50 in test [1] was 5.88 µM; in test [3] it was 3.97 µM; in test [4] it was 2.09 µM; in test [6], 10.8 µM; in test [5], 2.97 µM. Moreover, the TGI in test [1] was 19.2 µM; in test [3], 17.7 µM; in test [4], 5.25 µM; in test [6], 25.8 µM; in test [5], 17.5 µM.
On to `CCOC(=O)c1c2c(n3ccccc13)C(=O)c1ncccc1C2=O`, for which the GI50 in test [1] is 0.27 µM; in test [2], 0.0284 µM; in test [4], 0.0474 µM; in test [6], 0.0587 µM; in test [5], 0.818 µM. Besides, the TGI in test [1] came out at 75.9 µM; in test [2], 1.77 µM; in test [4], 23.3 µM; in test [6] it was 13.7 µM; in test [5] it was 13 µM.
Regarding `CN(C)CCCNC(=O)c1cc(NC(=O)c2cc(NC(=O)CCNS(=O)(=O)c3ccc4c(c3)C(=O)c3ccccc3C4=O)cn2C)cn1C`, the GI50 in test [1], in test [2], in test [3], in test [4] and in test [6] was above 100 µM in each case. For the same compound, the TGI in test [1], in test [2], in test [3], in test [4] and in test [6] was above 100 µM throughout.
In the case of `COc1cc2c(cc1OC)C13CCN4CC5CCOC6CC(=O)N2C1C6C5CC43` (configuration not stated), the TGI in test [1], in test [2], in test [3], in test [4] and in test [6] was above 100 µM throughout.
For the compound `CN(C)CCNC(=O)c1ccc(NC(=O)c2nc([N+](=O)[O-])cn2C)cc1`, the TGI in test [1], in test [2], in test [3], in test [4] and in test [5] was above 100 µM in each case.
